The term EC50 denotes the concentration giving half of the maximal effect. One may read the IC50 as the concentration needed to halve the response being measured. What is called AC50 is the concentration at which the activity in the assay is half-maximal.

Activity calls are given as the source filed them.

The target in assay [1] is T1, Short transient receptor potential channel 4 (Mus musculus, UniProt Q9QUQ5).
T1 sequence (Q9QUQ5 whole entry): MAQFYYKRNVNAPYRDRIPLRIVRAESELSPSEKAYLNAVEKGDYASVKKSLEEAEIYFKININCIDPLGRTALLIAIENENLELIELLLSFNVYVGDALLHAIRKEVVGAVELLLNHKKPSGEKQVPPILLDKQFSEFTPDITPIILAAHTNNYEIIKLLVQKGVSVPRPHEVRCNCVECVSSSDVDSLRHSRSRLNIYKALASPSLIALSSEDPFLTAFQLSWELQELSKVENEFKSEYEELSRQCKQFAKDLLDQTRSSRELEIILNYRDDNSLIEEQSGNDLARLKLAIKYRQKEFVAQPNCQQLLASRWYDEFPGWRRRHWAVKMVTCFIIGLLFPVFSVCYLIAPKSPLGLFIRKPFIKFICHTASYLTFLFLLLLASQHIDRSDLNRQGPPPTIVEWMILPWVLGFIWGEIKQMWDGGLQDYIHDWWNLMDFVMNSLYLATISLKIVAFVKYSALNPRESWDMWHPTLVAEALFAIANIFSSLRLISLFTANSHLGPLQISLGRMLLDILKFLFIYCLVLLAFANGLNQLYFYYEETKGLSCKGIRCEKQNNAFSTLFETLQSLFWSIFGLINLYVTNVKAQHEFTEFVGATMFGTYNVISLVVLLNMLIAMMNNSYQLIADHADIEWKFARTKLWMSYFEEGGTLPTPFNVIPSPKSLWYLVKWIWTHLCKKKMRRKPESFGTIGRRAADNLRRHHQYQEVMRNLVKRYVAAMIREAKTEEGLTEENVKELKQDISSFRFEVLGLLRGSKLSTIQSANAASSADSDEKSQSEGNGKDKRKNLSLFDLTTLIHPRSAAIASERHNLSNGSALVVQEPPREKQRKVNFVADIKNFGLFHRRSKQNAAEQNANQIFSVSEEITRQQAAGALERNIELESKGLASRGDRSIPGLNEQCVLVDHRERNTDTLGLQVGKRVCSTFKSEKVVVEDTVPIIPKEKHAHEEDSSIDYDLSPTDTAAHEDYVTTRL
The assay can be described thus: calcium entry via TRPC4 opening agents – cell-based, HEK293 TRPC4/mu-opioid, Fluo-4 calcium, dose response (AID 434937). The class given is functional.

For assay [2], the target named is T2, RNA-binding protein pos-1 (Caenorhabditis elegans, UniProt G5EF15).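 Also: purified POS-1 fused to maltose binding protein made in E. coli; potency of compounds blocking POS-1 binding to fluorescent RNA.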
T2 sequence (G5EF15 whole entry): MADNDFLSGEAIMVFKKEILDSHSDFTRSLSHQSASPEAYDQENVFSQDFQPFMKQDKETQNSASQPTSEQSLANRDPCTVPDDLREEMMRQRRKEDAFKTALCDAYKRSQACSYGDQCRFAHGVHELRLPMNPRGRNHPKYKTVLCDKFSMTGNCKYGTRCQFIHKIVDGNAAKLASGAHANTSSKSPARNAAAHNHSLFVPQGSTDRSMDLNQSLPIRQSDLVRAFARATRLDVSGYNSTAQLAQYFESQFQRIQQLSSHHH
Description: disruptors of C. elegans POS-1 RNA interaction – biochemical, fluorescence polarization, dose response (AID 1964). (In general: Polarisation of emitted light reports the rotation of a fluorescent probe.)

Assay [3] concerns the target T3, Zinc finger protein mex-5 (Caenorhabditis elegans, UniProt Q9XUB2).
T3 sequence (Q9XUB2 whole entry): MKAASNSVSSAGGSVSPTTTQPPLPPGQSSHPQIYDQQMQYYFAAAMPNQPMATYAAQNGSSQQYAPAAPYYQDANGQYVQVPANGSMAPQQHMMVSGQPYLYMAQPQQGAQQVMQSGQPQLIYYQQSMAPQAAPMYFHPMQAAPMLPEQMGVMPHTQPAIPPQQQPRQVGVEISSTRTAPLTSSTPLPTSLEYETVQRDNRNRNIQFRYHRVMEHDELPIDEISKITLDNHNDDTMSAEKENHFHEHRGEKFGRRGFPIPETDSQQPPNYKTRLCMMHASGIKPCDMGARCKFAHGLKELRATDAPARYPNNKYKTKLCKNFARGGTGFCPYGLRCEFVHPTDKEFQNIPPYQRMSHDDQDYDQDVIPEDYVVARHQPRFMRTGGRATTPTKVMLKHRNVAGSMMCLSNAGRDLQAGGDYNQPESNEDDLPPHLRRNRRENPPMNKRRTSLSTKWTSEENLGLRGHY
The assay can be described thus: potency of MEX-5 RNA-binding blockers – biochemical, C. elegans, fluorescence polarization, dose response (AID 1960).

Assay [4] addresses Induced myeloid leukemia cell differentiation protein Mcl-1 (Homo sapiens, UniProt Q07820). The class given is functional.
Assay [5] concerns the target T4, Ubiquitin-conjugating enzyme E2 N (Homo sapiens, UniProt P61088).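 Also: Dose-response confirmation in a TR-FRET assay detecting UBC13-driven polyubiquitin chain formation, inhibition measured.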
T4 sequence (P61088 whole entry): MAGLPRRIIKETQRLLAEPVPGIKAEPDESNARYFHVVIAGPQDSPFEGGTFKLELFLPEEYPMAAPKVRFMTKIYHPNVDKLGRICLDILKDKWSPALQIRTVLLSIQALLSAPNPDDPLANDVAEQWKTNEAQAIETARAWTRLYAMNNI
The class given is functional.

Assay [6] addresses T5, Voltage-gated N-type calcium channel alpha-1B subunit/Amyloid beta A4 precursor protein-binding family A member 1 (Homo sapiens, UniProt Q00975+Q02410). The class given is protein assay.
In assay [7] the target is T5, Voltage-gated N-type calcium channel alpha-1B subunit/Amyloid beta A4 precursor protein-binding family A member 1. The class given is protein assay. This is another data set of the same source.
Assay [8] deals with Streptococcus sp. 'group A'. Description: Streptococcus pyogenes SK(-)GAS viability under kanamycin – luminescence, BacTiterGlo, confirmation, counter-screen for streptokinase expression inhibitor project, dose response (AID 1900). The class given is functional, organism-based.
For the next assay, the target named is T6, Protein RecA (Mycobacterium tuberculosis, UniProt P9WHJ3).
T6 sequence (P9WHJ3 whole entry): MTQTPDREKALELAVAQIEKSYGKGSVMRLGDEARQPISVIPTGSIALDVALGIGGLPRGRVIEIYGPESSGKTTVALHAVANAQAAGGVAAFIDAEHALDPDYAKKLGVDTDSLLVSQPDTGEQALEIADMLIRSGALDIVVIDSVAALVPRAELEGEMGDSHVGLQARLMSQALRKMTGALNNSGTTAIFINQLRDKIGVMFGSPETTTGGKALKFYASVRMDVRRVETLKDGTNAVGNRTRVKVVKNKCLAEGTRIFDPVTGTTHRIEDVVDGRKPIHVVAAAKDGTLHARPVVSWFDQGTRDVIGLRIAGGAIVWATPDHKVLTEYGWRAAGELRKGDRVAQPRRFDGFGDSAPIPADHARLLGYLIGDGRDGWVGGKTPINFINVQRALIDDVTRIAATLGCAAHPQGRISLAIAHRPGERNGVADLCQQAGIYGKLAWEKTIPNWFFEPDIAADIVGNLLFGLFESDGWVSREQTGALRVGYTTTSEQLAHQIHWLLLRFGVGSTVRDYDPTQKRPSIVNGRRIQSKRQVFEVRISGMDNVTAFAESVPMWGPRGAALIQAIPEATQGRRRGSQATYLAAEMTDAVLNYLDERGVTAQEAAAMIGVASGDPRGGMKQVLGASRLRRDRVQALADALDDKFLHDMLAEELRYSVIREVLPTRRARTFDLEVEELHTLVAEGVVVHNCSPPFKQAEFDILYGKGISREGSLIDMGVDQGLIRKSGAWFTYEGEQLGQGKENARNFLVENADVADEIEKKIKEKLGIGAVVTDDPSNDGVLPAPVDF
Description: Fluorescence Cell-Free Homogeneous Dose Retest to Identify Inhibitors of RecA-Intein Splicing Activity. [Related pubchem assays (depositor defined):AID2097, AID2223, AID489010, AID492950]. The class given is functional.

The target of assay [9] is T7, Replicative DNA helicase DnaB (Mycobacterium tuberculosis, UniProt P9WMR3).
T7 sequence (P9WMR3 whole entry): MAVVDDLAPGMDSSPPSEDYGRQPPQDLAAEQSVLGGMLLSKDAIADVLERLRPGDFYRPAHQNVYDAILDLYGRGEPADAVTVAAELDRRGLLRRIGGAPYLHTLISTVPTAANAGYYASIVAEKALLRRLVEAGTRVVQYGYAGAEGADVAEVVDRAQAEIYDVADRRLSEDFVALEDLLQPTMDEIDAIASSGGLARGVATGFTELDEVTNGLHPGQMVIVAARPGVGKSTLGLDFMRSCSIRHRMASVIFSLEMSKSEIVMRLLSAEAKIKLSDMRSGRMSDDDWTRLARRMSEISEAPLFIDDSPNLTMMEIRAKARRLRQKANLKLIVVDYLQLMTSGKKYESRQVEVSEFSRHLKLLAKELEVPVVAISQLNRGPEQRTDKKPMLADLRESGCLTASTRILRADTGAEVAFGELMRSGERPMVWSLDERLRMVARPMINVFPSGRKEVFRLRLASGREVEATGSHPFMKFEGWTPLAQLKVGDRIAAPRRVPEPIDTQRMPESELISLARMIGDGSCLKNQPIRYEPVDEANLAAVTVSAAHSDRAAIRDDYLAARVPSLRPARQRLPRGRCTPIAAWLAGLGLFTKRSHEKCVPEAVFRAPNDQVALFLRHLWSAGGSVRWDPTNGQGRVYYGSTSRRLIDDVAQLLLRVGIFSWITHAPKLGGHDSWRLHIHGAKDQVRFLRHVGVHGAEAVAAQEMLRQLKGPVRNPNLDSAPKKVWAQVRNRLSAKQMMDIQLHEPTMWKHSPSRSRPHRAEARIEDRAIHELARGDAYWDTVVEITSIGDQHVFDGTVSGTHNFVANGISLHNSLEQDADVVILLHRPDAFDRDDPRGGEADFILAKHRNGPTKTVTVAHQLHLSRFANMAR
Description: DnaB intein splicing inhibitors, dose response, biochemical, cell-free fluorescence (AID 449749). The class given is functional.

Another assay addresses T8, Streptokinase A (Streptococcus pyogenes serotype M1, UniProt P10520).
T8 sequence (P10520 whole entry): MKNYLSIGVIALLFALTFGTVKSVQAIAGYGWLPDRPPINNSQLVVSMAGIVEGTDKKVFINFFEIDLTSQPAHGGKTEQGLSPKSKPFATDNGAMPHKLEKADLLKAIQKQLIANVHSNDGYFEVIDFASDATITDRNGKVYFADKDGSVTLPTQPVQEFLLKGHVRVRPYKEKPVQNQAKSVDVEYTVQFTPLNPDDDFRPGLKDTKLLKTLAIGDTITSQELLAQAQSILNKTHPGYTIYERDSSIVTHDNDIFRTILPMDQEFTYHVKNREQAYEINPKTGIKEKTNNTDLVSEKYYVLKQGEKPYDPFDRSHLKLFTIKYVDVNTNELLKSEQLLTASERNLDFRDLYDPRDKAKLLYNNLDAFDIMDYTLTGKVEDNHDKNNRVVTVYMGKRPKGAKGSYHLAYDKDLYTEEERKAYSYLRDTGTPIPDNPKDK
The assay can be described thus: viability-normalized secreted streptokinase activity reduction – plasminogen activation absorbance, OD405, dose response (AID 1914).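 Also: secreted streptokinase activity via plasminogen activation per viability signal from cell pellet.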 The class given is functional, Streptococcus pyogenes M1 GAS.

For another assay, the system named is Streptococcus. The assay can be described thus: GAS UMAA2166 growth inhibition – luminescence, BacTiterGlo, counter-screen for streptokinase expression inhibitor project, dose response (AID 1915).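 Also: potency for reduction of bacterial viability or growth.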 The class given is functional, organism-based. (In general: A counterscreen serves to expose hits that act by an unwanted route or on another target.)
A short description of assay [10]: viability of PTEN-deleted HCT116 cells – cell-based, HCT116 PTEN knockout, dose response (AID 1047).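 Also: HCT116 colon tumor cells with PTEN knocked out; cells exposed to compound for 60 hours before readout; potency for loss of cell viability measured by luminescence.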 The class given is functional.
For another assay, the target named is Large T antigen (Simian virus 40, UniProt P03070). The class given is functional, Betapolyomavirus macacae.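 Also: Confirmatory-stage PubChem screen for compounds that inhibit SV40 T antigen.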
The nature of assay [11]: viability of HCT116 lacking mutant beta-catenin – cell-based, human colon tumor, dose response (AID 1045).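 Also: HCT116 colon tumor cells with beta catenin knocked out; cells exposed to compound for 60 hours.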 The class given is functional.

T5 sequence (Q00975 whole entry): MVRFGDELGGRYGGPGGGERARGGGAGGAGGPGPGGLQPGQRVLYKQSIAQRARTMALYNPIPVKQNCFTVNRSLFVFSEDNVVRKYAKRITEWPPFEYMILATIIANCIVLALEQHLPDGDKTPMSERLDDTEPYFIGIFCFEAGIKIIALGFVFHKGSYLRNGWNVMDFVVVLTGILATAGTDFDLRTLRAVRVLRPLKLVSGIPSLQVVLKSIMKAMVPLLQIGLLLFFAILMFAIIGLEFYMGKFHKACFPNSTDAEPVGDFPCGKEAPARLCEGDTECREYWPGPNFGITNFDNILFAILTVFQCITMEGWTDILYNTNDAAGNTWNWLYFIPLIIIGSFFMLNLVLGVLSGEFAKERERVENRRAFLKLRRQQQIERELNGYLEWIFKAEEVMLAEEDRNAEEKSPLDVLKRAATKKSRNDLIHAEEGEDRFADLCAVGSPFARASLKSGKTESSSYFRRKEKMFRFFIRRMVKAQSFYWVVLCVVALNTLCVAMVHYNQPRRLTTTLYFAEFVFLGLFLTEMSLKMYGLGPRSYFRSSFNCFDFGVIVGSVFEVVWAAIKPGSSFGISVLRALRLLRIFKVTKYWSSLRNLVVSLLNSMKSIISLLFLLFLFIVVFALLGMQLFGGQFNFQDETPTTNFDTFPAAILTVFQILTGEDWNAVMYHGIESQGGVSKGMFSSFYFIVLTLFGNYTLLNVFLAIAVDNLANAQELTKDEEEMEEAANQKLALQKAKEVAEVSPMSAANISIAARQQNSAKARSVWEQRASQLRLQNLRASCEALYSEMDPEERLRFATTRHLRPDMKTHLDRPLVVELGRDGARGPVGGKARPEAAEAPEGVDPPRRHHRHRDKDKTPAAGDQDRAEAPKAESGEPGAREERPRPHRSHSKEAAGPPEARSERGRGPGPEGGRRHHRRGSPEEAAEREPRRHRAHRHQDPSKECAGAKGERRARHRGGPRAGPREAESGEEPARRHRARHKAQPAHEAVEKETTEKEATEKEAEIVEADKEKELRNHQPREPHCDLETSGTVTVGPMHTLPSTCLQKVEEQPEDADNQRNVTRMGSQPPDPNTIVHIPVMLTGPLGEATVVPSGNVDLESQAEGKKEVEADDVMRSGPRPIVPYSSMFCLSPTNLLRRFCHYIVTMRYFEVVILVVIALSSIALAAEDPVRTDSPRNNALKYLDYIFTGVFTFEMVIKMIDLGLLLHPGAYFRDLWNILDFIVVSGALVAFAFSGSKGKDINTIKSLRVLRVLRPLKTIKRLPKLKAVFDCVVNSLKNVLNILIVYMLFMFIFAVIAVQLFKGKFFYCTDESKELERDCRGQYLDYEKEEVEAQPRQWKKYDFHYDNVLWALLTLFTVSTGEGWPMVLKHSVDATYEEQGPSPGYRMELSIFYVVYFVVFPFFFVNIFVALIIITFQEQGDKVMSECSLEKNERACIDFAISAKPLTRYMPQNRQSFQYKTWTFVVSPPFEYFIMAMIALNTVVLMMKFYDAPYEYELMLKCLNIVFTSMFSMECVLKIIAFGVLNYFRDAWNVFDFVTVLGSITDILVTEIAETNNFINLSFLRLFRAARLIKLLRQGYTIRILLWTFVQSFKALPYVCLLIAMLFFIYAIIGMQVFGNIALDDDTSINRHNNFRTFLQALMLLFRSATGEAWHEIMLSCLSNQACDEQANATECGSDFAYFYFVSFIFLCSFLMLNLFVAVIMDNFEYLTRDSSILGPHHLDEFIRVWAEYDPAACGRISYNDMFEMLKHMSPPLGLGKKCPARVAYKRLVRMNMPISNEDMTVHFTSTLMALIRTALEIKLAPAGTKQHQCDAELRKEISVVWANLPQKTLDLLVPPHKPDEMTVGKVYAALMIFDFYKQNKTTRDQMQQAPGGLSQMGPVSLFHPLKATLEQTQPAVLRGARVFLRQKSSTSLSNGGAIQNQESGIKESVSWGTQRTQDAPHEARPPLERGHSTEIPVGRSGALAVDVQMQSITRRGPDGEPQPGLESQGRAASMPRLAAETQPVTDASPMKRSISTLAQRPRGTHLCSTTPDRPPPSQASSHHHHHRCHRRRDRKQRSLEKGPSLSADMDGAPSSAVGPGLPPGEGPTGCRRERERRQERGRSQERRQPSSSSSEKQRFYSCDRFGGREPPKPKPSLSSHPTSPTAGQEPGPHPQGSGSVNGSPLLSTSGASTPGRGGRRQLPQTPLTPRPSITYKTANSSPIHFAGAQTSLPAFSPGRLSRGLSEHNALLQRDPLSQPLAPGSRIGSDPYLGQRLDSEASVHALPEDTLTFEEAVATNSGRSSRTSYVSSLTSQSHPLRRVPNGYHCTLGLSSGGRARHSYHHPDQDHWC
T5 sequence (Q02410 whole entry): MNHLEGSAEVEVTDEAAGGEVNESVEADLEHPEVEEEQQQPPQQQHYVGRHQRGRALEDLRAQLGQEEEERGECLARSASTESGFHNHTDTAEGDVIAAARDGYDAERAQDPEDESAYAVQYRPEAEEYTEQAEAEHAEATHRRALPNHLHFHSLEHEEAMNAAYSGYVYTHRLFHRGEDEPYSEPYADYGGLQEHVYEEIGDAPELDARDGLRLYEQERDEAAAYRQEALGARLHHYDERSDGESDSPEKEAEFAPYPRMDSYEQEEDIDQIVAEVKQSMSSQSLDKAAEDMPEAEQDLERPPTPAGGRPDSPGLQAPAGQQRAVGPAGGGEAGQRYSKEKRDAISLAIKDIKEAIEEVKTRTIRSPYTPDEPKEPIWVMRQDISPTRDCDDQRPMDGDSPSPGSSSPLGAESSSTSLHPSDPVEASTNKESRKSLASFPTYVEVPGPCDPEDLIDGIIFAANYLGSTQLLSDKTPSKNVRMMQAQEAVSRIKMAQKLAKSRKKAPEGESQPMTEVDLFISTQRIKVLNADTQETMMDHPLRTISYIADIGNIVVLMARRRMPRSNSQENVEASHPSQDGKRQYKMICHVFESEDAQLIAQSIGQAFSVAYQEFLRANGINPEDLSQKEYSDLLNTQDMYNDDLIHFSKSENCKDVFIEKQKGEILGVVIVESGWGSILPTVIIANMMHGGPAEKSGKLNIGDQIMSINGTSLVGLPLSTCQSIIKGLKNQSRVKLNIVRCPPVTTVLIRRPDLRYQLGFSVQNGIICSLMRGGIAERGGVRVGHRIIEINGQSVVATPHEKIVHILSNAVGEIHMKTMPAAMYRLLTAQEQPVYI
Sequence of Induced myeloid leukemia cell differentiation protein Mcl-1 (Q07820 whole entry): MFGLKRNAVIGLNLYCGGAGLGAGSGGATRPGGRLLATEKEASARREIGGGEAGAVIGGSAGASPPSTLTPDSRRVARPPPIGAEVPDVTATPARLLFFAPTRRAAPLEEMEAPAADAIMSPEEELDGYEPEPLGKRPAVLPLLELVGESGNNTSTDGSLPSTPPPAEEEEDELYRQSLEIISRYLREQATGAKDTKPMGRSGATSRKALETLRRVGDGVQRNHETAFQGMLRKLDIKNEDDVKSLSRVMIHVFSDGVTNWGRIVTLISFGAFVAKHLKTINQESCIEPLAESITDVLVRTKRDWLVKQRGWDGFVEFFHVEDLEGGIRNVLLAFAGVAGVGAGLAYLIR
Sequence of Large T antigen (P03070 whole entry): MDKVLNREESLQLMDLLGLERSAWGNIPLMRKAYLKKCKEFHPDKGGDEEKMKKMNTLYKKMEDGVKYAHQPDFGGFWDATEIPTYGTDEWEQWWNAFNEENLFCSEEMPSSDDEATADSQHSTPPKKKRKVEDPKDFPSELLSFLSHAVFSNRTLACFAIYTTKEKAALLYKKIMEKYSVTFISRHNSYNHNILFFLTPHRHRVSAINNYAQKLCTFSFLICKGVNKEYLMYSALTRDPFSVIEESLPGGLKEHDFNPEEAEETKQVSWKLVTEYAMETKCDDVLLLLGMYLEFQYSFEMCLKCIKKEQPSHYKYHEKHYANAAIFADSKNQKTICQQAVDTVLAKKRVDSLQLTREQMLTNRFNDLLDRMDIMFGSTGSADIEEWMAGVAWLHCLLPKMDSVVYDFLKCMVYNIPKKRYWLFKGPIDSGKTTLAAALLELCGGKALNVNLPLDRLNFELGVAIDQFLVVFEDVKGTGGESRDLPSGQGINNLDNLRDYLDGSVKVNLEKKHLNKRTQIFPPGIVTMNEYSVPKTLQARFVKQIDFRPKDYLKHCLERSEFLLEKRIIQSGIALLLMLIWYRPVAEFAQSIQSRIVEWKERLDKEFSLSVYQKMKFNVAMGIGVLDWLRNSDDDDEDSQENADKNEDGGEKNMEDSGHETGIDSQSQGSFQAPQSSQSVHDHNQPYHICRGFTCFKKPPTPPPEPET

`Cn1c(=O)c2c(nc(CN3CCc4ccccc4C3)n2Cc2ccccc2F)n(C)c1=O`: the EC50 in [1] was 5.31 µM (active).

Regarding `C1=CC2c3ccccc3NC(c3ccncc3)C2C1` (centres undefined), the EC50 in assay [2] is > 300 µM (not active); in assay [3], 56.6 µM (inconclusive). Besides, in assay [4], the IC50 was 2.42 µM (active).

With `Cc1ccc(NS(=O)(=O)c2ccc(C(=O)N3CC(C)CC(C)C3)cc2)cc1` (centres undefined), the EC50 in assay [1] is 4.22 µM (active).

As to `O=C(CC(=O)c1c(F)cccc1Cl)c1ccccc1O`, in [1], the EC50 was 10.6 µM (active).

Consider `CC(C)CC(C(=O)NC1CCCC1)N(Cc1ccc2c(c1)OCO2)C(=O)c1snc(C(N)=O)c1N` (centres undefined), for which the IC50 in [5] is > 20 µM (inactive).

As to `N#Cc1c(O)nsc1Nc1ccccc1Cl`, the figures for the IC50 in [6] and in assay [7] were > 50 µM (inactive) and 4.76 µM (active), respectively.

With `NC(=O)c1nsc(C(=O)N(c2cccc(F)c2)C(C(=O)NC2CCCC2)c2ccc(O)cc2)c1N` (centres undefined), the IC50 in assay [5] is > 20 µM (inactive).

For the molecule `CCOC(=O)C1=C(O)c2ccccc2C(=O)/C1=C\c1ccc(CC)cc1`, the EC50 is 13 µM (active) in assay [8], 8.86 µM (active) on Protein RecA, > 150 µM (not active) at Streptokinase A and 38.1 µM (active) with Streptococcus. In [9], the AC50 was 4.44 µM (active). Also, the IC50 in assay [4] is 7.19 µM (active).

Take `COc1ccc(NC(=O)c2cc3ccc4c5ccccc5[nH]c4c3cc2O)cc1`: the IC50 is > 50 µM (inactive) in [6] and 9.55 µM (active) in [7].

Regarding `O=C(CCS(=O)(=O)c1ccccc1)Nc1ccc(-c2nc3ccccc3s2)cc1`, the IC50 in [6] was > 50 µM (inactive); in [7], 12.5 µM (active).

For `COc1ccc(OC)c(CCNC(=O)Cn2sc3nc(C)cc(C)c3c2=O)c1`, the EC50 in assay [10] is 18.3 µM (active); in [11], 16.7 µM (active). Besides, the IC50 in assay [6] was > 50 µM (inactive); in assay [7], 5.66 µM (active); on Large T antigen, 22.1 µM (active).

Take `CCN1C(=O)N/C(=C/c2ccc(C)o2)C1=O`: the IC50 in assay [6] was 22.6 µM (active); in assay [7] it was 3.29 µM (active).

Consider `CCN1C(=O)CC(c2ccccc2)N(C2CCCC2)c2nc(Nc3ccc(C(=O)NC4CCN(C)CC4)cc3OC)ncc21` (centres undefined), for which the IC50 in [5] was > 20 µM (inactive).

Consider `O=C(Cc1cccc(F)c1F)NC1CCCN(Cc2ccc(Cl)cc2)C1` (centres undefined), for which the EC50 in assay [1] is 0.944 µM (active).
